From ChEMBL document CHEMBL3286370, “Synthesis of triterpenoid triazine derivatives from allobetulone and betulonic acid with biological activities” (Bioorg Med Chem, 2014)

Assays:
Human alphaherpesvirus 3 [1] = test: Antiviral activity against thymidine kinase-deficient Varicella zoster virus 07-1 assessed as reduction in virus-induced cytopathogenicity by cell-based assay; assay type: functional, organism-based; settings: Human alphaherpesvirus 3, 07-1
Human alphaherpesvirus 3 [2] = test: Antiviral activity against Varicella zoster virus Oka assessed as reduction in virus-induced cytopathogenicity by cell-based assay; assay type: functional, organism-based; settings: Human alphaherpesvirus 3, strain Oka vaccine
L1210 = test: Cytostatic activity against mouse L1210 cells after 48 hrs by Coulter counting analysis; assay type: functional, cell-based; settings: L1210, 48 h
CCRF-CEM = test: Cytostatic activity against human CEM cells after 72 hrs by Coulter counting analysis; assay type: functional, cell-based
Human alphaherpesvirus 1 [3] = test: Antiviral activity against thymidine kinase-deficient ACV-resistant Herpes simplex virus type 1 KOS assessed as reduction in virus-induced cytopathogenicity by cell-based assay; assay type: functional, organism-based; settings: Human alphaherpesvirus 1, KOS
HeLa = test: Cytostatic activity against human HeLa cells after 72 hrs by Coulter counting analysis; assay type: functional, cell-based
Human betaherpesvirus 5 [4] = test: Antiviral activity against Human cytomegalovirus AD169 assessed as reduction in viral plaque formation; assay type: functional, organism-based; settings: Human betaherpesvirus 5, AD169
Human alphaherpesvirus 1 [5] = test: Antiviral activity against Herpes simplex virus type 1 KOS assessed as reduction in virus-induced cytopathogenicity by cell-based assay; assay type: functional, organism-based; settings: Human alphaherpesvirus 1, KOS
Human betaherpesvirus 5 [6] = test: Antiviral activity against Human cytomegalovirus Davis assessed as reduction in viral plaque formation; assay type: functional, organism-based; settings: Human betaherpesvirus 5, Davis
[7] = Cytotoxicity against HEL cells assessed as alteration in cellular morphology; assay type: cell-based; settings: human
[8] = Cytotoxicity against HEL cells assessed as growth inhibition; assay type: cell-based; settings: human
Human alphaherpesvirus 2 = test: Antiviral activity against Herpes simplex virus type 2 G assessed as reduction in virus-induced cytopathogenicity by cell-based assay; assay type: functional, organism-based; settings: Human alphaherpesvirus 2, strain G

Row | IC50 (L1210) [µM] | IC50 (CCRF-CEM) [µM] | IC50 (HeLa) [µM] | EC50 (Human betaherpesvirus 5 [4]) [µM] | EC50 (Human betaherpesvirus 5 [6]) [µM] | Compound | EC50 (Human alphaherpesvirus 3 [1]) [µM] | EC50 (Human alphaherpesvirus 3 [2]) [µM] | EC50 (Human alphaherpesvirus 1 [3]) [µM] | EC50 (Human alphaherpesvirus 1 [5]) [µM] | MCC [7] [µM] | CC50 [8] [µM] | EC50 (Human alphaherpesvirus 2) [µM]
1 | 7.8 | 3.8 | 10 | 8.6 | 11 | C=C(C)[C@@H]1CC[C@]2(C(=O)O)CC[C@]3(C)[C@H](CC[C@@H]4[C@@]5(C)Cc6cc7c(nc6C(C)(C)[C@@H]5CC[C@]43C)SCC7)[C@@H]12 |  |  |  |  |  | 74 | 
2 | 4.9 | 1.2 | 9.1 | > 4 | ≥ 4 | C#CCCSc1nnc2c(n1)C(C)(C)[C@@H]1CC[C@]3(C)[C@H](CC[C@@H]4[C@H]5[C@H](C(=C)C)CC[C@]5(C(=O)O)CC[C@]43C)[C@@]1(C)C2 |  |  |  |  | 20 | 55 | 
3 | 7.3 | 2.6 | 7.3 | 1.8 | 2 | C=C(C)[C@@H]1CC[C@]2(C(=O)O)CC[C@]3(C)[C@H](CC[C@@H]4[C@@]5(C)Cc6nnc(SC)nc6C(C)(C)[C@@H]5CC[C@]43C)[C@@H]12 |  |  |  |  | 20 | 45 | 
4 | 196 | 204 | 160 | ≥ 20 | ≥ 20 | C=C(C)[C@@H]1CC[C@]2(C(=O)O)CC[C@]3(C)[C@H](CC[C@@H]4[C@@]5(C)Cc6n[nH]c(=S)nc6C(C)(C)[C@@H]5CC[C@]43C)[C@@H]12 |  |  |  |  | > 100 | > 100 | 

Row | Compound | IC50 (L1210) [µM] | IC50 (CCRF-CEM) [µM] | IC50 (HeLa) [µM] | EC50 (Human betaherpesvirus 5 [4]) [µM] | EC50 (Human betaherpesvirus 5 [6]) [µM] | EC50 (Human alphaherpesvirus 3 [1]) [µM] | EC50 (Human alphaherpesvirus 3 [2]) [µM] | EC50 (Human alphaherpesvirus 1 [3]) [µM] | EC50 (Human alphaherpesvirus 1 [5]) [µM] | MCC [7] [µM] | CC50 [8] [µM] | EC50 (Human alphaherpesvirus 2) [µM]
5 | C=C(C)[C@@H]1CC[C@]2(C(=O)O)CC[C@]3(C)[C@H](CC[C@@H]4[C@@]5(C)CC(=O)C(=O)C(C)(C)[C@@H]5CC[C@]43C)[C@@H]12 | 12 | 13 | 19 | 3 | 2.9 | 10 | 10 | 10 | 10 | 20 | 51 | 10
